The molecules below were run against human Nav1.7 (Homo sapiens (Human), UniProt Q15858) (assay: FRET-based membrane potential assay, recombinant human sodium channel Nav1.7). Settings: HEK293 cells stably expressing recombinant human Nav1.7; depolarization with veratridine (EC80) + scorpion venom.
Assay type: cell-based
In short: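 IC50 derived by four-parameter Hill fit of percent inhibition of depolarization, measured as peak F440-480/F565-625 ratio over baseline. Stable human Nav1.7 HEK293 cells, dye-loaded with CC2-DMPE and DiSBAC2(3)/VABSC-1 at room temperature, received compound 3 min ahead of veratridine (EC80) plus scorpion venom.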

human Nav1.7, sequence (Q15858 whole entry): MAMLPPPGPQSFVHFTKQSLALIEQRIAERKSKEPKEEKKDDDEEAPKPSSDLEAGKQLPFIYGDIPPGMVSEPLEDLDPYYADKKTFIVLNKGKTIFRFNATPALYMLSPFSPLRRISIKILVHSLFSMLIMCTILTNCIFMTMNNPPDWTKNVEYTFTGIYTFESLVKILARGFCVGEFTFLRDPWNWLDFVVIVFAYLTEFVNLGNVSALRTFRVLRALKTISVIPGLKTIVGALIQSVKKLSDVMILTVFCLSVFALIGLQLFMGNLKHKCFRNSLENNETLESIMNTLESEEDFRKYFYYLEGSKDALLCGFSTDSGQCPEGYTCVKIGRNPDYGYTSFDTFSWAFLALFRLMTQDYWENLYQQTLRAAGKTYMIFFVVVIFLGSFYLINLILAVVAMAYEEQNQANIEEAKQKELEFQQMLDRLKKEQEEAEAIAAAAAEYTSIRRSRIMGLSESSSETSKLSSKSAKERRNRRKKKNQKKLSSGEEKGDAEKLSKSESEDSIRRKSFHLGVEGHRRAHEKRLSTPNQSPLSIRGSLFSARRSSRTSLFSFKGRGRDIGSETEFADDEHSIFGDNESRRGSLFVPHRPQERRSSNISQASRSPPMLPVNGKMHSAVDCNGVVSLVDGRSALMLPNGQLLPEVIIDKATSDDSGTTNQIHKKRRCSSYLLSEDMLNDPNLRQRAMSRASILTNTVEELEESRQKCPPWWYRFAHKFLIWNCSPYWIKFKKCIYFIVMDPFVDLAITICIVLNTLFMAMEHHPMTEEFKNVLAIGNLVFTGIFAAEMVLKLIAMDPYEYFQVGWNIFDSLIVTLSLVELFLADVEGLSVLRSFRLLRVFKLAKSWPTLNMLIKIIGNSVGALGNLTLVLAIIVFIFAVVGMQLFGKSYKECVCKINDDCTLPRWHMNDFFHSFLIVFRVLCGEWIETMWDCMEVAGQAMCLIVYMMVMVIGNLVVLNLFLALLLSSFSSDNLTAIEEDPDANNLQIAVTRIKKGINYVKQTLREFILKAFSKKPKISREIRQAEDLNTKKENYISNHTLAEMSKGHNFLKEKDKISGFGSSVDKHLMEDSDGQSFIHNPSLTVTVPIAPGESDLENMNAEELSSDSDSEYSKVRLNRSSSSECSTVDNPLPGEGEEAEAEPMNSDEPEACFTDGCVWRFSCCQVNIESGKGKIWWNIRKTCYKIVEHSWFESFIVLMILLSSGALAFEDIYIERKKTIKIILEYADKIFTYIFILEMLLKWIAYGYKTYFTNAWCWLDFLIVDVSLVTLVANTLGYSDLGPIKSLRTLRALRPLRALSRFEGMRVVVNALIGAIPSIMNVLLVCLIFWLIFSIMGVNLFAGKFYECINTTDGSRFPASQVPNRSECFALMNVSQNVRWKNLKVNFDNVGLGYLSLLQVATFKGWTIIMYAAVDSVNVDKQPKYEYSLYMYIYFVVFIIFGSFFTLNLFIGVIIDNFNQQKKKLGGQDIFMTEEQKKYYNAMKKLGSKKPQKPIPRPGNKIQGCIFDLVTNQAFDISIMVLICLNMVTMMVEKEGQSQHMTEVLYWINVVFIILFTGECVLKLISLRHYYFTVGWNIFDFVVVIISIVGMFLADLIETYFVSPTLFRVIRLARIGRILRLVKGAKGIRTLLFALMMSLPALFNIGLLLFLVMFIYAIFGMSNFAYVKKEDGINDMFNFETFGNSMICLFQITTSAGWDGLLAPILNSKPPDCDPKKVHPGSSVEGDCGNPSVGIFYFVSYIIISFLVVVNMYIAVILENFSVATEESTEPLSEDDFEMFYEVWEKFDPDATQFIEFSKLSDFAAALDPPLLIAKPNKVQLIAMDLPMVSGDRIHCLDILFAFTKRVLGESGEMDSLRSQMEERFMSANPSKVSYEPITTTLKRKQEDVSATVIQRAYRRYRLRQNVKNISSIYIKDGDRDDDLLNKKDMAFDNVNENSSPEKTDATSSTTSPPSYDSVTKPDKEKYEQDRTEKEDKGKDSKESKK

With `CC(C)C[C@](C)(O)CN1CCN(c2cccc3c2cnn3-c2ccccc2F)C1=O` [Example 168, 1-[1-(2-fluorophenyl)-1H-indazol-4-yl]-3-[(2S)-2-hydroxy-2,4-dimethylpentyl]imidazolidin-2-one] as the molecule, how does the IC50 read?
The IC50 was 816 nM.

`O=C1N(CC(=O)N2CCC[C@H]2C(F)(F)F)CCN1c1cccc2c1cnn2-c1ccccc1F` [Example 169, 1-[1-(2-fluorophenyl)-1H-indazol-4-yl]-3-{2-oxo-2-[(2S)-2-(trifluoromethyl)pyrrolidin-1-yl]ethyl}imidazolidin-2-one] was tested. Which IC50 did it give?
The IC50 was 1070 nM.

`COC[C@H]1CCCN1C(=O)CN1CCN(c2cccc3c2cnn3-c2ccccc2F)C1=O` [Example 170, 1-[1-(2-fluorophenyl)-1H-indazol-4-yl]-3-{2-[(2R)-2-(methoxymethyl)pyrrolidin-1-yl]-2-oxoethyl}imidazolidin-2-one] was tested. Which IC50 did it give?
Its IC50 is 795 nM.

For `O=C1N(CC(=O)N2CCC[C@@H]2C(F)(F)F)CCN1c1cccc2c1cnn2-c1ccccc1F` [Example 171, 1-[1-(2-fluorophenyl)-1H-indazol-4-yl]-3-{2-oxo-2-[(2R)-2-(trifluoromethyl)pyrrolidin-1-yl]ethyl}imidazolidin-2-one], which IC50 is on record?
The IC50 was 285 nM.

For `CC1(C)CCCN1C(=O)CN1CCN(c2cccc3c2cnn3-c2ccccc2F)C1=O` [Example 172, 1-[2-(2,2-dimethylpyrrolidin-1-yl)-2-oxoethyl]-3-[1-(2-fluorophenyl)-1H-indazol-4-yl]imidazolidin-2-one], which IC50 is on record?
The IC50 was 2600 nM.

For `O=C(CN1CCN(c2cccc3c2cnn3-c2ccccc2F)C1=O)NCc1cccc(F)c1` [Example 173, N-(3-fluorobenzyl)-2-{3-[1-(2-fluorophenyl)-1H-indazol-4-yl]-2-oxoimidazolidin-1-yl}acetamide], which IC50 is on record?
Its IC50 is 800 nM.

For `O=C(CN1CCN(c2cccc3c2cnn3-c2ccccc2F)C1=O)NCc1cc(F)ccc1F` [Example 174, N-(2,5-difluorobenzyl)-2-{3-[1-(2-fluorophenyl)-1H-indazol-4-yl]-2-oxoimidazolidin-1-yl}acetamide], which IC50 is on record?
Its IC50 is 849 nM.

For `Cc1ccccc1CNC(=O)CN1CCN(c2cccc3c2cnn3-c2ccccc2F)C1=O` [Example 175, 2-{3-[1-(2-fluorophenyl)-1H-indazol-4-yl]-2-oxoimidazolidin-1-yl}-N-(2-methylbenzyl)acetamide], which IC50 is on record?
Its IC50 is 2650 nM.

With `C[C@@H](NC(=O)CN1CCN(c2cccc3c2cnn3-c2ccccc2F)C1=O)c1ccccc1` [Example 176, 2-{3-[1-(2-fluorophenyl)-1H-indazol-4-yl]-2-oxoimidazolidin-1-yl}-N-[(1R)-1-phenylethyl]acetamide] as the molecule, how does the IC50 read?
The IC50 was 983 nM.

With `O=C(CN1CCN(c2cccc3c2cnn3-c2ccccc2F)C1=O)NCc1cc(F)cc(F)c1` [Example 177, N-(3,5-difluorobenzyl)-2-{3-[1-(2-fluorophenyl)-1H-indazol-4-yl]-2-oxoimidazolidin-1-yl}acetamide] as the molecule, how does the IC50 read?
Its IC50 is 965 nM.

`C[C@H](NC(=O)CN1CCN(c2cccc3c2cnn3-c2ccccc2F)C1=O)c1ccccc1` [Example 178, 2-{3-[1-(2-fluorophenyl)-1H-indazol-4-yl]-2-oxoimidazolidin-1-yl}-N-[(1S)-1-phenylethyl]acetamide] was tested. Which IC50 did it give?
Its IC50 is 2000 nM.

How did the IC50 turn out when `O=C1N(Cc2nc3ccccc3s2)CCN1c1cccc2c1cnn2-c1ccccc1F` [Example 179, 1-(1,3-benzothiazol-2-ylmethyl)-3-[1-(2-fluorophenyl)-1H-indazol-4-yl]imidazolidin-2-one] was run?
The IC50 was 15400 nM.

With `CC(C)C(C)(O)CN1CCN(c2cccc3c2cnn3-c2ccccc2F)C1=O` (stereo not drawn) [Example 180, 1-[1-(2-fluorophenyl)-1H-indazol-4-yl]-3-(2-hydroxy-2,3-dimethylbutyl)imidazolidin-2-one] as the molecule, how does the IC50 read?
Its IC50 is 3230 nM.

`O=C1N(CC2CCCC2)CCN1c1cccc2c1cnn2-c1ccccc1F` [Example 181, 1-(cyclopentylmethyl)-3-[1-(2-fluorophenyl)-1H-indazol-4-yl]imidazolidin-2-one] was tested. Which IC50 did it give?
The IC50 was 6270 nM.

Which IC50 does the source give for `O=C1N(CC2CCCO2)CCN1c1cccc2c1cnn2-c1ccccc1F` (stereo not drawn) [Example 182, 1-[1-(2-fluorophenyl)-1H-indazol-4-yl]-3-(tetrahydrofuran-2-ylmethyl)imidazolidin-2-one] here?
The IC50 was 2620 nM.

`O=C(CN1CCN(c2cccc3c2cnn3-c2ccccc2F)C1=O)C1CC1` [Example 183, 1-(2-cyclopropyl-2-oxoethyl)-3-[1-(2-fluorophenyl)-1H-indazol-4-yl]imidazolidin-2-one] was tested. Which IC50 did it give?
The IC50 was 2930 nM.

With `O=C1N(c2cccc3c2cnn3-c2ccccc2F)CCN1C1CCC1` [Example 184, 1-cyclobutyl-3-[1-(2-fluorophenyl)-1H-indazol-4-yl]imidazolidin-2-one] as the molecule, how does the IC50 read?
The IC50 was 1060 nM.

`O=C1N(c2cccc3c2cnn3-c2ccccc2F)CCN1[C@H]1CO[C@@H](c2ccccc2F)C1` [Example 185, 1-[1-(2-fluorophenyl)-1H-indazol-4-yl]-3-[(3R,5R)-5-(2-fluorophenyl)tetrahydrofuran-3-yl]imidazolidin-2-one] was tested. Which IC50 did it give?
The IC50 was 965 nM.

Which IC50 does the source give for `CC(C)CC(O)CN1CCCN(c2cccc3c2cnn3-c2ccccc2F)C1=O` (stereo not drawn) [Example 186, 1-[1-(2-fluorophenyl)-1H-indazol-4-yl]-3-(2-hydroxy-4-methylpentyl)tetrahydropyrimidin-2(1H)-one] here?
Its IC50 is 1410 nM.

For `C[C@H]1CCCN1C(=O)CN1CCCN(c2cccc3c2cnn3-c2ccccc2F)C1=O` [Example 187, 1-[1-(2-fluorophenyl)-1H-indazol-4-yl]-3-{2-[(2S)-2-methylpyrrolidin-1-yl]-2-oxoethyl}tetrahydropyrimidin-2(1H)-one], which IC50 is on record?
Its IC50 is 1910 nM.

`CC(C)CC(=O)CN1CCCN(c2cccc3c2cnn3-c2ccccc2F)C1=O` [Example 188, 1-[1-(2-fluorophenyl)-1H-indazol-4-yl]-3-(4-methyl-2-oxopentyl)tetrahydropyrimidin-2(1H)-one] was tested. Which IC50 did it give?
Its IC50 is 1660 nM.

For `O=C1N(CC2CC2(F)F)CCN1c1cccc2c1cnn2-c1ccccc1F` (stereo not drawn) [Example 189, 1-[(2,2-difluorocyclopropyl)methyl]-3-[1-(2-fluorophenyl)-1H-indazol-4-yl]imidazolidin-2-one], which IC50 is on record?
The IC50 was 1020 nM.

With `O=C1N(c2cccc3c2cnn3-c2ccccc2F)CCN1c1cnn2cccnc12` [Example 190, 1-[1-(2-fluorophenyl)-1H-indazol-4-yl]-3-(pyrazolo[1,5-a]pyrimidin-3-yl)imidazolidin-2-one] as the molecule, how does the IC50 read?
The IC50 was 1090 nM.

How did the IC50 turn out when `Cn1cc2cc(N3CCN(c4cccc5c4cnn5-c4ccccc4F)C3=O)ccc2n1` [Example 191, 1-[1-(2-fluorophenyl)-1H-indazol-4-yl]-3-(2-methyl-2H-indazol-5-yl)imidazolidin-2-one] was run?
Its IC50 is 2950 nM.

How did the IC50 turn out when `O=C1N(c2ccc(C3CC3)o2)CCN1c1cccc2c1cnn2-c1ccccc1F` [Example 192, 1-(5-cyclopropyl-2-furyl)-3-[1-(2-fluorophenyl)-1H-indazol-4-yl]imidazolidin-2-one] was run?
Its IC50 is 1360 nM.

With `O=C1N(CCc2ccccc2)CCN1c1cccc2c1cnn2-c1ccccc1F` [Example 193, 1-[1-(2-fluorophenyl)-1H-indazol-4-yl]-3-(2-phenylethyl)imidazolidin-2-one] as the molecule, how does the IC50 read?
Its IC50 is 998 nM.

`O=C1N(CC2CC2)CCN1c1cccc2c1cnn2-c1ccccc1F` [Example 194, 1-(cyclopropylmethyl)-3-[1-(2-fluorophenyl)-1H-indazol-4-yl]imidazolidin-2-one] was tested. Which IC50 did it give?
Its IC50 is 613 nM.
